Results reported in ChEMBL document CHEMBL1148513, “Synthetic studies of neoclerodane diterpenes from Salvia divinorum: selective modification of the furan ring” (Bioorg Med Chem Lett, 2006).

How the values were obtained:
[1] = biological target: T1, Kappa-type opioid receptor (Homo sapiens, UniProt P41145); test: Agonist activity at human kappa opioid receptor stably transfected in CHO cells by [35S]GTPgammaS assay relative to (-)-U50488; type: functional, cell-based
[2] = biological target: Mu-type opioid receptor (Homo sapiens, UniProt P35372); test: Displacement of [125I]IOXY from human mu opioid receptor
[3] = biological target: Delta-type opioid receptor (Homo sapiens, UniProt P41143); test: Displacement of [125I]IOXY from human delta opioid receptor
[4] = biological target: T1, Kappa-type opioid receptor; test: Displacement of [125I]IOXY from human kappa opioid receptor
[5] = biological target: T1, Kappa-type opioid receptor; test: Agonist activity at human kappa opioid receptor stably transfected in CHO cells by [35S]GTP-gamma-S assay; type: functional, cell-based

Sequence of Delta-type opioid receptor (P41143 whole entry): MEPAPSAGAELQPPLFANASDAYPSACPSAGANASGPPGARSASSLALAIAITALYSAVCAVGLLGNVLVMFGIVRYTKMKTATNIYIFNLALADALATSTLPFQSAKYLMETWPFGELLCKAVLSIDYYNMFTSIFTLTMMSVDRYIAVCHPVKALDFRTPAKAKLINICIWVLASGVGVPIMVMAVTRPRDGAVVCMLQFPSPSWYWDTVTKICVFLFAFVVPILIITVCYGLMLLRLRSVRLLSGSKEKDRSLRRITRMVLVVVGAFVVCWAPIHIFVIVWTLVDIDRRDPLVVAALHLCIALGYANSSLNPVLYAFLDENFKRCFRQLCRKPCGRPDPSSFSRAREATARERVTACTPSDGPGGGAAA
T1 sequence (P41145 whole entry): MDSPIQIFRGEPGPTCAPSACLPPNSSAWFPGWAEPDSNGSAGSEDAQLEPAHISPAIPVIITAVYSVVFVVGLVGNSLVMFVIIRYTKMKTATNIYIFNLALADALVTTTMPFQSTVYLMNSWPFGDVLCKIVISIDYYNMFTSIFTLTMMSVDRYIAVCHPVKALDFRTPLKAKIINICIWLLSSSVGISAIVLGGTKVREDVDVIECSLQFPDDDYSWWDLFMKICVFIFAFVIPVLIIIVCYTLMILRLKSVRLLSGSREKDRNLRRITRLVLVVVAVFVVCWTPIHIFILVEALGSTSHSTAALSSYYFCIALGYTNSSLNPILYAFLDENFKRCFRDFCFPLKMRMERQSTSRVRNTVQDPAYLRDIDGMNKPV
Sequence of Mu-type opioid receptor (P35372 whole entry): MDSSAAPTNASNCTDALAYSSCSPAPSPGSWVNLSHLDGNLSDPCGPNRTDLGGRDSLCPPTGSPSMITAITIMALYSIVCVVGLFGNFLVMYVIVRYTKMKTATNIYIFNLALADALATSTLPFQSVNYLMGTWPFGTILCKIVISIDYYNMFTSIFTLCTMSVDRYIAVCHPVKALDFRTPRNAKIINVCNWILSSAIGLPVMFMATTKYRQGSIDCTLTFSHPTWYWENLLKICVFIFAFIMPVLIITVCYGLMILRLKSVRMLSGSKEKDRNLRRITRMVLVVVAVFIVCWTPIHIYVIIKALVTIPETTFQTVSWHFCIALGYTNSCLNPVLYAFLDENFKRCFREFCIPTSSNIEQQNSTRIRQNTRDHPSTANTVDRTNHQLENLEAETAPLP

Structure (SMILES)	Emax [1] [%]	Ki [2] [µM]	Ki [3] [µM]	Ki [4] [µM]	ED50 [5] [µM]
COC(=O)[C@@H]1C[C@H](OC(C)=O)C(=O)[C@H]2[C@@]1(C)CC[C@H]1C(=O)O[C@H](c3ccn(S(=O)(=O)c4ccccc4)c3)C[C@]21C	60	> 10	> 10	0.41	9.16
COC(=O)[C@@H]1C[C@H](OC(C)=O)C(=O)[C@H]2[C@@]1(C)CC[C@H]1C(=O)O[C@H](c3ccn(S(C)(=O)=O)c3)C[C@]21C	70	> 10	> 10	0.84	3.6
COC(=O)[C@@H]1C[C@H](OC(C)=O)C(=O)[C@H]2[C@@]1(C)CC[C@H]1C(=O)O[C@H](c3ccn(S(=O)(=O)c4ccc(OC)cc4)c3)C[C@]21C	60	> 10	> 10	1.62	15.2
COC(=O)c1coc([C@@H]2C[C@]3(C)[C@H]4C(=O)[C@@H](OC(C)=O)C[C@@H](C(=O)OC)[C@]4(C)CC[C@H]3C(=O)O2)n1	–	> 10	> 10	8.53	–
